Assay results as given in patent US10543212B2, “Substituted amines for treating cardiac diseases” (Cardurion Pharmaceuticals, LLC, priority 2017, dated 2020).

Each compound was assayed against T1, Full-length, GST-tagged, human CaMKIIδ (Homo sapiens, UniProt Q13557) (assay: CaMKIIδ binding assay (TR-FRET with BODIPY-labeled probe ligand)). Details: Table 2; CaMKIIδ binding assay, activity given as class A/B/C.
T1 construct: Full-Length, Glutathione-S-Transferase(GST)-Tagged, Human CaMKIIδ was purchased from Carna Biosciences; purchased Carna Biosciences 02-111
T1 sequence (Q13557 1-478 isoform Q13557-12): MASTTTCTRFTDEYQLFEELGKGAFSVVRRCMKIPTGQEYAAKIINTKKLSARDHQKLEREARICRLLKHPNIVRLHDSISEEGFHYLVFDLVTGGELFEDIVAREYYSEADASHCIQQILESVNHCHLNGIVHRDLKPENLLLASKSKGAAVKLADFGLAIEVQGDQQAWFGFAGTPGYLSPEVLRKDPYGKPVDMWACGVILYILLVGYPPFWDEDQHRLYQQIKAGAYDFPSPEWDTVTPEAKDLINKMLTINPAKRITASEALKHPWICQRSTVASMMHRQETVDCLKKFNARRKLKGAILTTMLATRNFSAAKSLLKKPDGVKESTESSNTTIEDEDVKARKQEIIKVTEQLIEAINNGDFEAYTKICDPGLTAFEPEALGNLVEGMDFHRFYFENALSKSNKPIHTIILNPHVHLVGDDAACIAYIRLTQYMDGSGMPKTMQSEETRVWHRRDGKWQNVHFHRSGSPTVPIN
Procedure, shortened: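 TR-FRET probe-displacement binding: 0.5 nM GST-CaMKIIδ with 10 μg/mL calmodulin, 1 mM CaCl2, 0.21 nM Tb-anti-GST Ab and 300 nM BODIPY probe in HEPES pH 7.6 buffer. Eight-point 4-fold dilutions, 1 hr at room temperature. IC50 from logistic fit; 100% inhibition defined by 3 μM parent compound.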
In the case of `C[C@@H](Cn1cnnn1)Oc1cc(-c2cnc(Nc3cn(CC4(CO)COC4)nc3C(F)(F)F)nc2)ccc1Cl` [Example 732, (S)-(3-((4-((5-(3-((1-(1H-tetrazol-1-yl)propan-2-yl)oxy)-4-chlorophenyl)pyrimidin-2-yl)amino)-3-(trifluoromethyl)-1H-pyrazol-1-yl)methyl)oxetan-3-yl)methanol], the IC50 is reported as 10 to 100 nM.
`C[C@@H](Cn1cnnn1)Oc1cc(-c2cnc(Nc3cn(C4CCCCC4O)nc3C(F)(F)F)nc2)ccc1Cl` (stereo partly drawn) [Example 733, 2-(4-((5-(3-(((S)-1-(1H-tetrazol-1-yl)propan-2-yl)oxy)-4-chlorophenyl)pyrimidin-2-yl)amino)-3-(trifluoromethyl)-1H-pyrazol-1-yl)cyclohexan-1-ol] showed an IC50 of less than 10 nM.
`Cc1noc(C)c1Cn1cc(Nc2ncc(-c3ccc(Cl)c(O[C@@H](C)Cn4cnnn4)c3)cn2)c(C(F)(F)F)n1` [Example 734, (S)-5-(3-((1-(1H-tetrazol-1-yl)propan-2-yl)oxy)-4-chlorophenyl)-N-(1-((3,5-dimethylisoxazol-4-yl)methyl)-3-(trifluoromethyl)-1H-pyrazol-4-yl)pyrimidin-2-amine] gave an IC50 of 10 to 100 nM.
Work on `C[C@@H](Cn1cnnn1)Oc1cc(-c2cnc(Nc3ccnn3C)nc2)ccc1Cl` [Example 735, (S)-5-(3-((1-(1H-tetrazol-1-yl)propan-2-yl)oxy)-4-chlorophenyl)-N-(1-methyl-1H-pyrazol-5-yl)pyrimidin-2-amine] yielded an IC50 of 10 to 100 nM.
Compound `C[C@@H](Cn1cnnn1)Oc1cc(-c2cnc(Nc3cn(CC(O)CO)nc3C(F)(F)F)nc2)ccc1Cl` (stereo partly drawn) [Example 736, 3-(4-((5-(3-(((S)-1-(1H-tetrazol-1-yl)propan-2-yl)oxy)-4-chlorophenyl)pyrimidin-2-yl)amino)-3-(trifluoromethyl)-1H-pyrazol-1-yl)propane-1,2-diol] has an IC50 of less than 10 nM.
Compound `COCCn1cc(Nc2ncc(-c3ccc(Cl)c(O[C@@H](C)Cn4cnnn4)c3)cn2)c(C(F)(F)F)n1` [Example 737, (S)-5-(3-((1-(1H-tetrazol-1-yl)propan-2-yl)oxy)-4-chlorophenyl)-N-(1-(2-methoxyethyl)-3-(trifluoromethyl)-1H-pyrazol-4-yl)pyrimidin-2-amine] has an IC50 of 10 to 100 nM.
`C[C@@H](Cn1cnnn1)Oc1cc(-c2cnc(Nc3cn(CC4CNC(=O)O4)nc3C(F)(F)F)nc2)ccc1Cl` (stereo partly drawn) [Example 738, 5-((4-((5-(3-(((S)-1-(1H-tetrazol-1-yl)propan-2-yl)oxy)-4-chlorophenyl)pyrimidin-2-yl)amino)-3-(trifluoromethyl)-1H-pyrazol-1-yl)methyl)oxazolidin-2-one] gave an IC50 of less than 10 nM.
Compound `C[C@@H](Cn1cnnn1)Oc1cc(-c2cnc(Nc3cn(C4CCCC4)nc3C(F)(F)F)nc2)ccc1Cl` [Example 739, (S)-5-(3-((1-(1H-tetrazol-1-yl)propan-2-yl)oxy)-4-chlorophenyl)-N-(1-cyclopentyl-3-(trifluoromethyl)-1H-pyrazol-4-yl)pyrimidin-2-amine] has an IC50 of 10 to 100 nM.
`C[C@@H](Cn1cnnn1)Oc1cc(-c2cnc(Nc3cc(C(C)(C)C)nn3C)nc2)ccc1Cl` [Example 740, (S)-5-(3-((1-(1H-tetrazol-1-yl)propan-2-yl)oxy)-4-chlorophenyl)-N-(3-(tert-butyl)-1-methyl-1H-pyrazol-5-yl)pyrimidin-2-amine] was tested, and the IC50 was no less than 100 nM.

Same assay, conditions: Table 2; activity class for CaMKIIδ
In the case of `C[C@@H](Cn1cnnn1)Oc1cc(-c2cnc(Nc3cn([C@@H]4Cc5ccccc5[C@@H]4O)nc3C(F)(F)F)nc2)ccc1Cl` [Example 721, (1S,2R)-2-(4-((5-(3-(((S)-1-(1H-tetrazol-1-yl)propan-2-yl)oxy)-4-chlorophenyl)pyrimidin-2-yl)amino)-3-(trifluoromethyl)-1H-pyrazol-1-yl)-2,3-dihydro-1H-inden-1-ol], the IC50 is reported as 10 to 100 nM.
In the case of `C[C@@H](Cn1cnnn1)Oc1cc(-c2cnc(Nc3cn(Cc4n[nH]c(=O)[nH]4)nc3C(F)(F)F)nc2)ccc1Cl` [Example 722, (S)-5-((4-((5-(3-((1-(1H-tetrazol-1-yl)propan-2-yl)oxy)-4-chlorophenyl)pyrimidin-2-yl)amino)-3-(trifluoromethyl)-1H-pyrazol-1-yl)methyl)-2,4-dihydro-3H-1,2,4-triazol-3-one], the IC50 is reported as no less than 100 nM.
`CC(C)n1ccc(Nc2ncc(-c3ccc(Cl)c(O[C@@H](C)Cn4cnnn4)c3)cn2)n1` [Example 723, (S)-5-(3-((1-(1H-tetrazol-1-yl)propan-2-yl)oxy)-4-chlorophenyl)-N-(1-isopropyl-1H-pyrazol-3-yl)pyrimidin-2-amine] gave an IC50 of 10 to 100 nM.
Compound `C[C@@H](Cn1cnnn1)Oc1cc(-c2cnc(Nc3cn(C4Cc5ccccc5C4)nc3C(F)(F)F)nc2)ccc1Cl` [Example 724, (S)-5-(3-((1-(1H-tetrazol-1-yl)propan-2-yl)oxy)-4-chlorophenyl)-N-(1-(2,3-dihydro-1H-inden-2-yl)-3-(trifluoromethyl)-1H-pyrazol-4-yl)pyrimidin-2-amine] has an IC50 of no less than 100 nM.
With `C[C@@H](Cn1cnnn1)Oc1cc(-c2cnc(Nc3cnn(CC4CC4)c3)nc2)ccc1Cl` [Example 725, (S)-5-(3-((1-(1H-tetrazol-1-yl)propan-2-yl)oxy)-4-chlorophenyl)-N-(1-(cyclopropylmethyl)-1H-pyrazol-4-yl)pyrimidin-2-amine] the IC50 was 10 to 100 nM.
`C#CCn1cc(Nc2ncc(-c3ccc(Cl)c(O[C@@H](C)Cn4cnnn4)c3)cn2)c(C(F)(F)F)n1` [Example 726, (S)-5-(3-((1-(1H-tetrazol-1-yl)propan-2-yl)oxy)-4-chlorophenyl)-N-(1-(prop-2-yn-1-yl)-3-(trifluoromethyl)-1H-pyrazol-4-yl)pyrimidin-2-amine] was tested, and the IC50 was 10 to 100 nM.
For `C[C@@H](Cn1cnnn1)Oc1cc(-c2cnc(Nc3cn(CCOC(F)(F)F)nc3C(F)(F)F)nc2)ccc1Cl` [Example 727, (S)-5-(3-((1-(1H-tetrazol-1-yl)propan-2-yl)oxy)-4-chlorophenyl)-N-(1-(2-(trifluoromethoxy)ethyl)-3-(trifluoromethyl)-1H-pyrazol-4-yl)pyrimidin-2-amine], the IC50 was 10 to 100 nM.
Compound `C[C@@H](Cn1cnnn1)Oc1cc(-c2cnc(Nc3cn(CC(O)C(F)(F)F)nc3C(F)(F)F)nc2)ccc1Cl` (stereo partly drawn) [Example 728, 3-(4-((5-(3-(((S)-1-(1H-tetrazol-1-yl)propan-2-yl)oxy)-4-chlorophenyl)pyrimidin-2-yl)amino)-3-(trifluoromethyl)-1H-pyrazol-1-yl)-1,1,1-trifluoropropan-2-ol] has an IC50 of 10 to 100 nM.
Compound `C[C@@H](Cn1cnnn1)Oc1cc(-c2cnc(Nc3cc(-c4cccs4)nn3C)nc2)ccc1Cl` [Example 729, (S)-5-(3-((1-(1H-tetrazol-1-yl)propan-2-yl)oxy)-4-chlorophenyl)-N-(1-methyl-3-(thiophen-2-yl)-1H-pyrazol-5-yl)pyrimidin-2-amine] has an IC50 of 10 to 100 nM.
With `C[C@@H](CO)Cn1cc(Nc2ncc(-c3ccc(Cl)c(O[C@@H](C)Cn4cnnn4)c3)cn2)c(C(F)(F)F)n1` [Example 730, (R)-3-(4-((5-(3-(((S)-1-(1H-tetrazol-1-yl)propan-2-yl)oxy)-4-chlorophenyl)pyrimidin-2-yl)amino)-3-(trifluoromethyl)-1H-pyrazol-1-yl)-2-methylpropan-1-ol] the IC50 was 10 to 100 nM.
With `Cc1c(Nc2ncc(-c3ccc(Cl)c(O[C@@H](C)Cn4cnnn4)c3)cn2)cnn1C` [Example 731, (S)-5-(3-((1-(1H-tetrazol-1-yl)propan-2-yl)oxy)-4-chlorophenyl)-N-(1,5-dimethyl-1H-pyrazol-4-yl)pyrimidin-2-amine] the IC50 was 10 to 100 nM.
